Patent US6465618B1, “Mitogen activated protein kinase (MAPK) kinase” (Asahi Kasei Kabushikiki Kaisha, priority 1997, dated 2002)

Columns and labels:
MKK7 = assay: Activation of MKK7 by TNF-α in KB and U937 cells (immune complex kinase assay); type: cell-based; conditions: KB cells 20 ng/ml, U937 cells 100 ng/ml human TNF-α; 5 to 180 minutes
Experimental: (§1) KB cells were cultured in Dulbecco's modified Eagles medium (DMEM) containing 10% bovine serum, and the cultured cells were stimulated with 20 ng/ml human TNF-α (manufactured and sold by BECTON DICKINSON AND COMPANY, USA, under the brand of Collaborative Biomedical Products). U937 cells were cultured in RPMI 1640 medium containing 10% fetal bovine serum, and the cultured cells were stimulated with 100 ng/ml human TNF-α. The cells were sampled from each cell culture 5, 15, 30, 60, 120 and 180 minutes after the start of the stimulation to thereby prepare cell extracts. The cell extracts were prepared as follows. The sampled cells were suspended in 0.7 M NaCl solution and washed once with ice-cold HEPES-buffered saline. […]
(§2) To 200 μl of the cell extract was added 3 μl of an antiserum (anti-MKK7 antiserum and anti-SEK1/MKK4 antiserum were separately used), and a reaction for preparing an immune complex was allowed to proceed while incubating at 4° C. for 1 hour. […] The phosphorylation of c-Jun was detected by autoradiography and used as an index for the activation of MKK7 or SEK1/MKK4 by TNF-α.

SEK1/MKK4 = assay: Activation of SEK1/MKK4 by TNF-α in KB and U937 cells (immune complex kinase assay); type: cell-based; conditions: KB cells 20 ng/ml, U937 cells 100 ng/ml human TNF-α; 5 to 180 minutes
Experimental: as §1, §2

TNF-α
activation of MKK7 by TNF-α (phosphorylation of c-Jun as index) (MKK7): activated | activation of SEK1/MKK4 by TNF-α (phosphorylation of c-Jun as index) (SEK1/MKK4): did not activate
